# Assay results reported in US20190060300A1, “Self-Emulsifying Compositions of CB2 Receptor Modulators” (priority 2016, published 2019).
# What was measured:
# [1] = air exposed, after 5 weeks; cited from earlier work
# [2] = system: mouse model of schizophrenia (PCP); assay: Open field test after oral BCP in SEDDS, PCP mouse model of schizophrenia; type: in vivo; conditions: 5 mg/kg BCP in SEDDS oral formulation, gavage, adolescent mice
# Method: (§1) The mouse model of schizophrenia was established.
# (§2) Sterile double-distilled water (DDW) was warmed for […] in a pre-warmed thermobath (35-38° C.). The SEDDS vehicle of the oral composition of Example 1 was warmed up separately to 35-38° C. for 10 min. In order to prepare BCP (5 mg/ml) for a final dose of 10 mg/kg, BCP (5 mg) was added directly into the vehicle (1 ml) and vortexed for 1 min to obtain the oral composition. Then the warmed sterile DDW (4 ml) at 35-38° C. was added at a ratio of 1:5 oral composition: DDW dilution and the diluted composition was vortexed for 1 min. In order to prepare BCP for a final dose of 5 mg/kg, 500 μl of BCP at 5 mg/ml were diluted with 500 μl SEDDS vehicle (1:2 dilution). Then the warmed sterile DDW (4 ml) at 35-38° C. was added at a ratio of 1:5 oral composition. DDW dilution and the diluted composition was vortexed for 1 min.
# (§3) BCP (5 mg/kg or 10 mg/kg in diluted self-emulsifying vehicle (Example 1)) was administered to adolescent mice (10 μl/g) by gavage twice a week (on Sunday and Wednesday) for 3 weeks (PND 43-62), a total of 6 injections. […]
# Each mouse was placed into the center of a clear open Plexiglas Chamber (40 cm*32 cm*30 cm) which its floor was divided to squares of 4 cm×5 cm. […] Ambulation behavior was manually counted for 8 min and data were collected in 2 min intervals.
# [3] = system: mouse model of schizophrenia (PCP); assay: Social interaction test in a novel environment after oral BCP in SEDDS, PCP mouse model; type: in vivo; conditions: 5 mg/kg BCP in SEDDS oral composition, gavage, adolescent mice
# Method: as §1, §2, §3
# Each mouse was placed in a novel cage together with a nonaggressive intruder mouse, of the same species, same sex and a similar age. The interaction between the two mice was recorded for 10 minutes with EthoVision software (Noldus). […]
# [4] = Body weight of mice treated orally with BCP in SEDDS; type: in vivo; conditions: 5 mg/kg BCP in SEDDS oral composition, gavage, adolescent mice
# Method: (§4) BCP (5 mg/kg or 10 mg/kg in diluted self-emulsifying vehicle (Example 1)) was administered to adolescent mice (10 μl/g) by gavage twice a week (on Sunday and Wednesday) for 3 weeks (PND 43-62), a total of 6 injections. Control group and PCP-induced group received by gavage the oral formulation solution without the drug.
# [5] = system: mouse model of schizophrenia (PCP); assay: Forced-swimming test after oral BCP in canola oil, PCP mouse model of schizophrenia; type: in vivo, mice
# Method: as §1
# BCP was diluted in canola oil.
# BCP (10 mg/kg diluted in canola oil) was administered to adolescent mice (PND 4362) by gavage twice a week (on Sunday and Wednesday) for 3 weeks, a total of 6 gavages. Control group and PCP-induced group received by gavage the oil vehicle.
# Training was conducted for 6 min a day before the test. Each mouse was placed into a transparent glass cylinder filled with fresh water at 25° C. On the test day, the total dilation/frequency of immobility and climbing was counted every 2 minutes for 6 minutes. An increased immobility is an index of learning and habituation, therefore a positive behavioral adaptation with a stressful condition.
# [6] = system: mouse model of schizophrenia (PCP); assay: Forced-swimming test after oral BCP in SEDDS, PCP mouse model of schizophrenia; type: in vivo; conditions: gavage twice a week for 3 weeks, adolescent mice
# Method: as §1, §2, §4
# Training was conducted for 6 min a day before the test. […] On the test day, the total duration/frequency of immobility and climbing was counted every 2 minutes for 6 minutes. […]
# [7] = Sköld et al. 2006; cited from earlier work
# [8] = target: CB2 receptor (Homo sapiens, UniProt P34972); conditions: Chicca A. et al; cited from earlier work
# Sequence of CB2 receptor (P34972 whole entry): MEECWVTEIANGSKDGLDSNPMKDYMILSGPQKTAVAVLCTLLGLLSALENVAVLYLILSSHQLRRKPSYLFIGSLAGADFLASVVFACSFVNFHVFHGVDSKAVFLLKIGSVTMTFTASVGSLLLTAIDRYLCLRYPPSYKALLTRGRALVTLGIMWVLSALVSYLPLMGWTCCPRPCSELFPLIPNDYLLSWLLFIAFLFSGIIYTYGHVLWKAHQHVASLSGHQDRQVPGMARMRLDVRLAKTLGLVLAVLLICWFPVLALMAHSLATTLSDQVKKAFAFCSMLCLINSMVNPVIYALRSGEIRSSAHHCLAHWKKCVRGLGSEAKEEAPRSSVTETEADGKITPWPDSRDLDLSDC
# [9] = Dissolution of MH in the SEDDS vehicle of Example 1; type: physicochemical
# Method: Preparation of MH in SEDDS vehicle. • 1. The SEDDS vehicle of the oral composition of Example 1 was warmed up separately to 42° C. for 13 min. In order to prepare about 5% (g/vol) MH solution, the vehicle (380 mg) was added to MH (22.8 mg) directly and vortexed for 60 sec to obtain the oral composition. • 2. The SEDDS vehicle of the oral composition of Example 1 was warmed up separately to 52° C. for 15 min. In order to prepare about 5% (g/vol) MH solution, the vehicle (380.18 mg) was added to MH (21.2 mg) directly and vortexed for 100 sec to obtain the oral composition. Then the solution was warmed up to 50° C. for 10 min. Then the solution was warmed up to 57° C. for 13 min and vortexed for 180 sec. • 3. The SEDDS vehicle of the oral composition of Example 1 was warmed up separately to 55° C. for 15 min. In order to prepare about 1% (g/vol) MH solution, the vehicle (396 mg) was added to MH (4 mg) directly and vortexed for 60 sec to obtain the oral composition. Then the solution was warmed up to 55° C. for 10 min and vortexed for 60 sec.
# [10] = Dissolution of MH in oral formulations V-01, V-02, V-03; type: physicochemical
# Method: The solution of 4-O-methylhonokiol (MH) was prepared in oral formulation according to Table 1 below.
# [11] = oral and topical administration, Chaves 2008; cited from earlier work
# [12] = according to its MSDS; cited from earlier work
compound,measurement,setting,value
"trans-(1R,9S)-8-methylene4,11,11 trimethylbicyclo[7.2.0)]undec-4-ene [BCP]",original compound consumed by oxidation,[1],~50%
same,effect of PCP on activity in the open field test,[2],reversed the effect of PCP
same,effect of PCP in the social interaction test,[3],reversed the effect of PCP
same,body weight,[4],did not affect their body weight
same,effect of 5 mg/kg PCP on the frequency of immobility in the forced swim test,"[5]; 10 mg/kg BCP in oil composition (canola oil), gavage twice a week for 3 weeks",did not reverse the effect
same,reversing the frequency of climbing in the forced-swim test,"[5]; BCP in oil, gavage",ineffective
same,effect of PCP in the forced-swim test,[6]; 5 mg/kg BCP in SEDDS oral formulation,reversed the effect of PCP
same,effect of PCP in the forced-swim test,[6]; 10 mg/kg BCP in SEDDS oral formulation,reversed the effect of PCP
"C=C1CC[C@H]2O[C@]2(C)CC[C@@H]2[C@@H]1CC2(C)C [BCP oxide, Caryophyllene oxide]",allergenicity,[7],allergen
same,CB2 receptor binding,[8],inactivity
"C=CCc1ccc(O)c(-c2ccc(OC)c(CC=C)c2)c1 [MH, 4-O-methylhonokiol]",dissolution of MH in SEDDS vehicle,"[9]; about 1% (g/vol) MH, solution warmed up to 55° C. for 10 min, vortexed 60 sec",dissolved
same,dissolution of MH in SEDDS vehicle,"[9]; about 1% (g/vol) MH, vehicle warmed to 55° C., vortexed 60 sec",did not dissolve
same,dissolution of MH in SEDDS vehicle,"[9]; about 5% (g/vol) MH, solution warmed up to 50° C. for 10 min",did not dissolve
same,dissolution of MH in SEDDS vehicle,"[9]; about 5% (g/vol) MH, solution warmed up to 57° C. for 13 min, vortexed 180 sec",dissolved
same,dissolution of MH in SEDDS vehicle,"[9]; about 5% (g/vol) MH, vehicle warmed to 42° C., vortexed 60 sec",did not dissolve
same,dissolution of MH in SEDDS vehicle,"[9]; about 5% (g/vol) MH, vehicle warmed to 52° C., vortexed 100 sec",did not dissolve
same,dissolution of MH in oral formulation,[10]; in V-01,dissolved
same,dissolution of MH in oral formulation,[10]; in V-02,dissolved
same,dissolution of MH in oral formulation,[10]; in V-03,dissolved
C/C1=C\CC/C(C)=C/CC(C)(C)/C=C/C1 [alpha-humulene],absorption,[11],rapid onset and relatively good absorption
same,irritancy,[12],"skin, eyes and respiratory irritant"
same,CB2 receptor binding,[8],inactivity
